Results reported in patent US20120035251A1, “THIOPHENE INHIBITORS OF IKK-B SERINE-THREONINE PROTEIN KINASE” (CHROMA THERAPEUTICS LD., priority 2009, published 2012).
Like-named read-outs stand apart in the source and are kept apart here. Values belong to the compound of their own block, whether it stands above or below them.

Experiments:
[1] = system: HUT78 (non-monocyte cell line) cells; assay: Intact cell accumulation assay, HUT78 cells; format: in vitro ADME; conditions: 6 μmol/L compound
Method: (§1) Cells (4×10^4/mL) were incubated at 37° C. in culture medium containing 6 μmol/L compound in a 5% (v/v) CO2-humidified atmosphere. Incubations were terminated after 6 h by centrifugation of 25 mL aliquots of the cell suspension at 1500 rpm for 5 min at 4° C. 0.2 mL samples of the culture media supernatants were added to four volumes of acetonitrile. After decanting the supernatant, the residual cell pellet (10^6 cells) was extracted into 1 mL of acetonitrile. Samples were then analyzed for the ester and acid metabolite at room temperature by LC/MS/MS (Sciex API3000). Chromatography was based on a MeCN (75×21 mm) column with a 5% to 95% (v/v) acetonitrile/water, 0.1% (v/v) formic acid mobile phase. For the zero time samples, the cell suspension was chilled and centrifuged as soon as the ester had been added and then extracted into acetonitrile as described. Levels in cells are expressed as ng/mL.

[2] = system: TNF-α production in THP-1 cells; assay: LPS-stimulation of THP-1 cells, TNF-α by ELISA; format: cell-based; conditions: Homo sapiens
Method: THP-1 cells were plated in 100 μl at a density of 4×10^4 cells/well in V-bottomed 96 well tissue culture treated plates and incubated at 37° C. in 5% CO2 for 16 hours. 2 hours after the addition of the inhibitor in 100 μl of tissue culture media, the cells were stimulated with LPS (E coli strain 005:B5, Sigma) at a final concentration of 1 μg/ml and incubated at 37° C. in 5% CO2 for 6 hrs. TNF-α levels were measured from cell-free supernatants by sandwich ELISA (R&D Systems #QTA00B).

[3] = system: TNF-α production in human whole blood; assay: LPS-stimulation of human whole blood, TNF-α by ELISA; format: cell-based
Method: Whole blood was taken by venous puncture using heparinised vacutainers (Becton Dickinson) and diluted in an equal volume of RPMI1640 tissue culture media (Sigma). 100 μl was plated in V-bottomed 96 well tissue culture treated plates. 2 hours after the addition of the inhibitor in 100 μlof RPMI1640 media, the blood was stimulated with LPS (E coli strain 005:B5, Sigma) at a final concentration of 100 ng/ml and incubated at 37° C. in 5% CO2 for 6 hours. TNF-α levels were measured from cell-free supernatants by sandwich ELISA (R&D Systems #QTA00B).

[4] = system: U937 (monocyte cell line) cells; assay: Intact cell accumulation assay, U937 cells; format: in vitro ADME; conditions: 6 μmol/L compound
Method: as §1

IKKβ = molecular target: T1, IKKβ (Homo sapiens, UniProt O14920); assay: IKKβ enzyme assay (Z'-LYTE, Invitrogen); format: biochemical
T1 construct: purchased Invitrogen (Paisley, UK)
T1 sequence (O14920 1-756): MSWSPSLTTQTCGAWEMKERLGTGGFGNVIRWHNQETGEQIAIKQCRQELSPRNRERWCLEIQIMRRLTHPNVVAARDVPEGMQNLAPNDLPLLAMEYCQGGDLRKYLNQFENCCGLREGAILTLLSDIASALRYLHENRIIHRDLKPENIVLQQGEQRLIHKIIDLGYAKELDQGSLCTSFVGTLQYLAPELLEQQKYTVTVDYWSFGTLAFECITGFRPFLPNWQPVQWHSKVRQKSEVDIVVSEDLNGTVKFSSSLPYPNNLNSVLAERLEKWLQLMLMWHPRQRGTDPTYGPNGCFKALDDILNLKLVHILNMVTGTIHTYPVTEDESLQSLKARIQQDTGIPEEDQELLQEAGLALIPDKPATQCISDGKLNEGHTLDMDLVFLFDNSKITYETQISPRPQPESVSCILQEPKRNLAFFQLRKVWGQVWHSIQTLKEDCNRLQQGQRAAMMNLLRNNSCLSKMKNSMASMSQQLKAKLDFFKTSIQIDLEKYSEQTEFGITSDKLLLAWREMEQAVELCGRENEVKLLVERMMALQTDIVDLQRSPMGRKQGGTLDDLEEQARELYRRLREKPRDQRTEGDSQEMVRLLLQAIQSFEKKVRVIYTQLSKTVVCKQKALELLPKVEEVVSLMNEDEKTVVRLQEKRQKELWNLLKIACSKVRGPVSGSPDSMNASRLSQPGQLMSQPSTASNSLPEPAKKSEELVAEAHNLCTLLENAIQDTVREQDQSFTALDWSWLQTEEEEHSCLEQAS
Method: The ability of compounds to inhibit IKKβ kinase activity was measured in an assay performed by Invitrogen (Paisley, UK). The Z′-LYTE™ biochemical assay employs a fluorescence-based, coupled-enzyme format and is based on the differential sensitivity of phosphorylated and non-phosphorylated peptides to proteolytic cleavage. The peptide substrate is labelled with two fluorophores—one at each end—that make up a FRET pair. In the primary reaction, the kinase transfers the gamma-phosphate of ATP to a single serine or threonine residue in a synthetic FRET-peptide. In the secondary reaction, a site-specific protease recognizes and cleaves non-phosphorylated FRET-peptides. Phosphorylation of FRET-peptides suppresses cleavage by the Development Reagent. Cleavage disrupts FRET between the donor (i.e., coumarin) and acceptor (i.e. fluorescein) fluorophores on the FRET-peptide, whereas uncleaved, phosphorylated FRET-peptides maintain FRET. A […] method, which calculates the ratio (the Emission Ratio) of donor emission to acceptor emission after excitation of the donor fluorophore at 400 nm, is used to quantitate reaction progress.
The final 10 μL Kinase Reaction consists of 0.9-8.0 ng IκBKB (IKKβ), 2 μM Ser/Thr 05 Peptide and ATP in 50 mM HEPES pH 7.5, 0.01% BRIJ-35, 10 mM MgCl2, 1 mM EGTA. The assay is performed at an ATP concentration at, or close to the Km. After the 60 minute Kinase Reaction incubation at room temperature, 5 μL of a 1:128 dilution of Development Reagent is added. The assay plate is incubated for a further 60 minutes at room temperature and read on a fluorescence plate reader.
Duplicate data points are generated from a 1/3 log dilution series of a stock solution of test compound in DMSO. Nine dilutions steps are made from a top concentration of 10 μM, and a ‘no compound’ blank is included. Data is collected and analysed using XLfit software from IDBS. The dose response curve is curve fitted to model number 205 (sigmoidal dose-response model). From the curve generated, the concentration giving 50% inhibition is determined and reported.

[5] = THP-1, read-out: Inhibition of TNF-α production in THP-1 cells (IC50)
[6] = LPS-stimulated THP-1 cells, TNF-α, read-out: IC50 (nM) THP-1
[7] = LPS-stimulated human whole blood, TNF-α, read-out: IC50 (nM) Human Whole Blood
[8] = compound as drawn (Ester for the Example 1 row), read-out: Inhibition of IKKβ (IC50 nM)
[9] = read-out: IC50 (nM) IKKβ Enzyme

SMILES: CC(C)C[C@H](NCc1ccc(Cc2cc(C(N)=O)c(NC(N)=O)s2)cc1)C(=O)OC1CCCC1 [Example 1, Cyclopentyl N-(4-{[4-carbamoyl-5-(carbamoylamino)-2-thienyl]methyl}benzyl)-L-leucinate]
Concentration in HUT78 cell line ([1]; 0 hrs incubation): 466 ng/10^6 cells
Concentration in HUT78 cell line ([1]; 6 hrs incubation): 465 ng/10^6 cells
IC50 [2, 5]: 1940 nM
IC50 [2, 6]: 500 to 5000 nM
Ratio of whole blood IC50 to enzyme IC50 [3]: 0.05
IC50 ([3]; Homo sapiens, read-out: Inhibition of TNF-α production in human whole blood (IC50)): 497 nM
IC50 [3, 7]: < 500 nM
Concentration in U937 cell line ([4]; 0 hrs incubation): 420 ng/10^6 cells
Concentration in U937 cell line ([4]; 6 hrs incubation): 217 ng/10^6 cells
IC50 (IKKβ; Acid: the acid of the drawn ester (Example 1), read-out: Inhibition of IKKβ (IC50 nM), Acid): 369 nM
IC50 (IKKβ; [8]): 10000 nM
IC50 (IKKβ; [9]): > 5000 nM

SMILES: CC(C)C[C@H](NCc1ccc(Cc2cc(C(N)=O)c(NC(N)=O)s2)cc1)C(=O)OC(C)(C)C [Example 2, tert-Butyl N-(4-{[4-carbamoyl-5-(carbamoylamino)-2-thienyl]methyl}benzyl)-L-leucinate]
IC50 [2, 6]: > 5000 nM
IC50 [3, 7]: > 5000 nM
IC50 (IKKβ; [9]): 500 to 5000 nM

SMILES: CC(C)C[C@H](NCc1ccc(CCc2cc(C(N)=O)c(NC(N)=O)s2)cc1)C(=O)OC1CCCC1 [Example 3, Cyclopentyl N-(4-{2-[4-carbamoyl-5-(carbamoylamino)-2-thienyl]ethyl}benzyl)-L-leucinate]
IC50 [2, 6]: > 5000 nM
IC50 [3, 7]: 500 to 5000 nM
IC50 (IKKβ; [9]): > 5000 nM

Now from value to compound, other results behind:

IC50 [2, 6]: 500 to 5000 nM
IC50 [3, 7]: 500 to 5000 nM
IC50 (IKKβ; [9]): > 5000 nM
SMILES: CC(C)C[C@H](NCc1ccc(C#Cc2cc(C(N)=O)c(NC(N)=O)s2)cc1)C(=O)OC1CCCC1 [Example 4, Cyclopentyl N-(4-{[4-carbamoyl-5-(carbamoylamino)-2-thienyl]ethynyl}benzyl)-L-leucinate]

Concentration in HUT78 cell line ([1]; 0 hrs incubation): 0 ng/10^6 cells
Concentration in U937 cell line ([4]; 0 hrs incubation): 68 ng/10^6 cells
Concentration in U937 cell line ([4]; 6 hrs incubation): 286 ng/10^6 cells
IC50 (IKKβ; [9]): < 500 nM
SMILES: CC(C)C[C@H](NCc1ccc(Cc2cc(C(N)=O)c(NC(N)=O)s2)cc1)C(=O)O [Example 5, N-(4-{[4-Carbamoyl-5-(carbamoylamino)-2-thienyl]methyl}benzyl)-L-leucine]

IC50 (IKKβ; [9]): 500 to 5000 nM
SMILES: CC(C)C[C@H](NCc1ccc(CCc2cc(C(N)=O)c(NC(N)=O)s2)cc1)C(=O)O [Example 6, N-(4-{2-[4-Carbamoyl-5-(carbamoylamino)-2-thienyl]ethyl}benzyl)-L-leucine]

IC50 [2, 5]: 2710 nM
Ratio of whole blood IC50 to enzyme IC50 [3]: >20
IC50 (IKKβ; [8]): 486 nM
SMILES: NC(=O)Nc1sc(Cc2ccccc2)cc1C(N)=O [reference compound]
inhibition at 10 µM ([3]; Homo sapiens, @10 μM, read-out: Inhibition of TNF-α production in human whole blood, % at single concentration): 28%
